The text below walks through data of patent publication US10836789B2, “Inhibitors of glucocorticoid receptor” (ORIC Pharmaceuticals, Inc., priority 2016, dated 2020).

As usually defined, the pIC50 is the negative decadic logarithm of the IC50, by convention in mol/L. Low values mean a high IC50, high ones a low IC50.

pIC50: −log10 of the molar value.

In one assay the target is T1, GR (Homo sapiens, UniProt P04150).
T1 construct: expressed in transfected cells; host or cells: CHO cells carrying GR and an MMTV-luciferase reporter
T1 sequence (P04150 1-777): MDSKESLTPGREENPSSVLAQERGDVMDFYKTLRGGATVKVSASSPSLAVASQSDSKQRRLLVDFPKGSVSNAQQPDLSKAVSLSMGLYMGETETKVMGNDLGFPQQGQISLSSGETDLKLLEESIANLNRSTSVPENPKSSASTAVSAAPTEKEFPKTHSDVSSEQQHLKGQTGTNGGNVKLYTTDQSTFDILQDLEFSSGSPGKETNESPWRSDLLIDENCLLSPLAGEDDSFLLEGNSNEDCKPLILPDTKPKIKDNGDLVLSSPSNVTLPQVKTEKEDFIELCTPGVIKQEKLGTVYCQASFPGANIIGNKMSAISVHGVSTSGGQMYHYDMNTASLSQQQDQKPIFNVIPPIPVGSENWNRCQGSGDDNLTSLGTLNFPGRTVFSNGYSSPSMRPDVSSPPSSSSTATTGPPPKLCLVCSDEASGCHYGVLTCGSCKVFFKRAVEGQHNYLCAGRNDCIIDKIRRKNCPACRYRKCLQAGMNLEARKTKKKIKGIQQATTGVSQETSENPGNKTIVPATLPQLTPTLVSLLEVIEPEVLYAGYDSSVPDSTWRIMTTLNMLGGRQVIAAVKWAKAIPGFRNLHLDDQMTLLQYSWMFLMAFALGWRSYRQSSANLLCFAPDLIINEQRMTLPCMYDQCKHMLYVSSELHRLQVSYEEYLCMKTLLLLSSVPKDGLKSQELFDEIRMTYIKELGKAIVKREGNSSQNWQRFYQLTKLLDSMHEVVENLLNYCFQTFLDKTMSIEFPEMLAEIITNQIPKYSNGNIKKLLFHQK
As to the kind of experiment: GR luciferase antagonist assay (CHO/GR/MMTV Luciferase cells). It is filed as cell-based. As to conditions: 10 nM Dexamethasone final, 16-18 h. The procedure:
Example A: […] GR Luciferase Assay Cell Line: CHO/GR/MMTV Luciferase Culture Media: DMEM (with phenol red)+10% FBS Assay Media: DMEM (without phenol red)+10% CSS A 1×10 cm plate of cells was split into 2×15 cm plates in Assay Media (CSS). After 4 days, the cells in the Assay Media were collected and counted. Antagonist Assay: 1.5×10^4 cells per well were plated in a 384-well white walled TC plate in 20 ul of Assay Media containing 12.5 nM Dexamethasone (final concentration=10 nM). The plates were covered with film to avoid evaporation and placed in a TC incubator. Media/drug dilutions were prepared in Assay Media in 96-well sterile plates. 100 ul of Assay Media was distributed in aliquots into 96-well plates with an 8-Channel pipette (20-200 ul). 0.5 ul of 1000× concentration of compounds were added to the plates with 8-Channel pipette (0.5-10 ul). The plates were shaken for 15 seconds to mix. The film was removed from the 384-well plates with assay cells. 5 ul of media/drug dilutions were added to appropriate wells. The plates were covered with film to avoid evaporation and placed in a TC incubator overnight. After 16-18 h in the incubator, the plates were removed and sat at room temperature for 10 minutes to equilibrate. The Reagent Dispenser was setup to distribute 25 ul aliquots of OneGlo Luciferase Reagent (at room temperature) to each well of the 384-well plate using standard cassette. After OneGlo was added to the plates, the plates were shaken briefly, then incubated in the dark at room temperature for about 3 minutes. The plates were read using a Tecan or Promega luminometer. The ability of the compounds disclosed herein to inhibit GR activity was quantified and the respective IC50 value was determined. Table 3 provides the cellular IC50 values of various substituted steroidal compounds disclosed herein.
`CC(C)(C)C#C[C@]1(O)CC[C@H]2[C@@H]3CCC4=CC(=O)CC[C@@H]4[C@H]3[C@@H](c3ccc(N4CCCC4)cc3)C[C@@]21C` [Compound 1, (8R,9S,10R,11S,13S,14S,17S)-17-(3,3-Dimethylbut-1-yn-1-yl)-17-hydroxy-13-methyl-11-(4-(pyrrolidin-1-yl)phenyl)-1,2,6,7,8,9,10,11,12,13,14,15,16,17-tetradecahydro-3H-cyclopenta[a]phenanthren-3-one] showed a pIC50 of at least 7.00.

`CC(C)(C)C#C[C@]1(O)CC[C@H]2[C@@H]3CCC4=CC(=O)CC[C@@H]4[C@H]3[C@@H](c3ccc(N4CCS(=O)(=O)CC4)cc3)C[C@@]21C` [Compound 22]: the pIC50 was at least 7.00.

Take `CC#C[C@]1(O)CC[C@H]2[C@@H]3CCC4=CC(=O)CC[C@]4(C)[C@H]3[C@@H](c3ccc(N(C)C(C)C)cc3)C[C@@]21C` [Compound 19]: the pIC50 was under 7.00.

`CC#C[C@]1(O)CC[C@H]2[C@@H]3CCC4=CC(=O)CC[C@]4(C)[C@H]3[C@@H](c3ccc(NC(C)C)cc3)C[C@@]21C` [Compound 30, (8S,9R,10R,11S,13S,14S,17S)-17-Hydroxy-11-(4-(isopropylamino)phenyl)-10,13-dimethyl-17-(prop-1-yn-1-yl)-1,2,6,7,8,9,10,11,12,13,14,15,16,17-tetradecahydro-3H-cyclopenta[a]phenanthren-3-one] showed a negative-log IC50 (pIC50) of under 7.00.

With `CC(C)N(C)c1ccc([C@H]2C[C@@]3(C)[C@@H](CC[C@@]3(O)C#CC(C)(C)C)[C@@H]3CCC4=CC(=O)CC[C@]4(C)[C@H]32)cc1` [Compound 16], the pIC50 was under 7.00.

Consider `C[C@]12CCC(=O)C=C1CC[C@@H]1[C@@H]2[C@@H](c2ccc(N3CCCC3)cc2)C[C@@]2(C)[C@H]1CC[C@@]2(O)C#CC1CC1` [Compound 28], for which the pIC50 is under 7.00.

As to `CCN(CC)c1ccc([C@H]2C[C@@]3(C)[C@@H](CC[C@@]3(O)C#CC(C)(C)C)[C@@H]3CCC4=CC(=O)CC[C@@H]4[C@H]32)cc1` [Compound 9, (8R,9S,10R,11S,13S,14S,17S)-11-(4-(Diethylamino)phenyl)-17-(3,3-dimethylbut-1-yn-1-yl)-17-hydroxy-13-methyl-1,2,6,7,8,9,10,11,12,13,14,15,16,17-tetradecahydro-3H-cyclopenta[a]phenanthren-3-one], the pIC50 is at least 7.00.

Molecule `C[C@]12CCC(=O)C=C1CC[C@@H]1[C@@H]2[C@@H](c2ccc(N3CCCC3)cc2)C[C@@]2(C)[C@H]1CC[C@@]2(O)C#CC(F)(F)F` [Compound 29] had a negative logarithm of the IC50 (pIC50) of at least 7.00.

Consider `CC(C)(C)C#C[C@]1(O)CC[C@H]2[C@@H]3CCC4=CC(=O)CC[C@@H]4[C@H]3[C@@H](c3ccc(N)cc3)C[C@@]21C` [Compound 13, (8R,9S,10R,11S,13S,14S,17S)-11-(4-Aminophenyl)-17-(3,3-dimethylbut-1-yn-1-yl)-17-hydroxy-13-methyl-1,2,6,7,8,9,10,11,12,13,14,15,16,17-tetradecahydro-3H-cyclopenta[a]phenanthren-3-one], for which the pIC50 was at least 7.00.

`CC(C)(C)C#C[C@]1(O)CC[C@H]2[C@@H]3CCC4=CC(=O)CC[C@@H]4[C@H]3[C@@H](c3ccc4c(c3)OCO4)C[C@@]21C` [Compound 5, (8R,9S,10R,11S,13S,14S,17S)-11-(Benzo[d][1,3]dioxol-5-yl)-17-(3,3-dimethylbut-1-yn-1-yl)-17-hydroxy-13-methyl-1,2,6,7,8,9,10,11,12,13,14,15,16,17-tetradecahydro-3H-cyclopenta[a]phenanthren-3-one]: the pIC50 is at least 7.00.

On to `CC(C)(C)C#C[C@]1(O)CC[C@H]2[C@@H]3CCC4=CC(=O)CC[C@@H]4[C@H]3[C@@H](c3ccc4c(c3)OCCO4)C[C@@]21C` [Compound 3, (8R,9S,10R,11S,13S,14S,17S)-11-(2,3-Dihydrobenzo[b][1,4]dioxin-6-yl)-17-(3,3-dimethylbut-1-yn-1-yl)-17-hydroxy-13-methyl-1,2,6,7,8,9,10,11,12,13,14,15,16,17-tetradecahydro-3H-cyclopenta[a]phenanthren-3-one], for which the pIC50 was at least 7.00.

Consider `CC#C[C@]1(O)CC[C@H]2[C@@H]3CCC4=CC(=O)CC[C@]4(C)[C@H]3[C@@H](c3ccc(N)cc3)C[C@@]21C` [Compound 26, (8S,9R,10R,11S,13S,14S,17S)-11-(4-Aminophenyl)-17-hydroxy-10,13-dimethyl-17-(prop-1-yn-1-yl)-1,2,6,7,8,9,10,11,12,13,14,15,16,17-tetradecahydro-3H-cyclopenta[a]phenanthren-3-one], for which the pIC50 is under 7.00.

Turning to `CC#C[C@]1(O)CC[C@H]2[C@@H]3CCC4=CC(=O)CC[C@]4(C)[C@H]3[C@@H](c3ccc(NC)cc3)C[C@@]21C` [Compound 23], the negative logarithm of the IC50 (pIC50) is under 7.00.

On to `CC(=O)N1CCN(c2ccc([C@H]3C[C@@]4(C)[C@@H](CC[C@@]4(O)C#CC(C)(C)C)[C@@H]4CCC5=CC(=O)CC[C@@H]5[C@H]43)cc2)CC1` [Compound 24], for which the pIC50 was at least 7.00.

Turning to `CC(C)(C)C#C[C@]1(O)CC[C@H]2[C@@H]3CCC4=CC(=O)CC[C@@H]4[C@H]3[C@@H](c3ccc(N4CCN(S(C)(=O)=O)CC4)cc3)C[C@@]21C` [Compound 27], the pIC50 is at least 7.00.

For the molecule `CCC#C[C@]1(O)CC[C@H]2[C@@H]3CCC4=CC(=O)CC[C@]4(C)[C@H]3[C@@H](c3ccc(NC)cc3)C[C@@]21C` [Compound 12], the pIC50 is under 7.00.

Take `CC(C)N(C)c1ccc([C@H]2C[C@@]3(C)[C@@H](CC[C@@]3(O)C#CC(C)(C)C)[C@@H]3CCC4=CC(=O)CC[C@@H]4[C@H]32)cc1F` [Compound 15, (8R,9S,10R,11S,13S,14S,17S)-17-(3,3-Dimethylbut-1-yn-1-yl)-11-(3-fluoro-4-(isopropyl(methyl)amino)phenyl)-17-hydroxy-13-methyl-1,2,6,7,8,9,10,11,12,13,14,15,16,17-tetradecahydro-3H-cyclopenta[a]phenanthren-3-one]: the pIC50 was at least 7.00.

Molecule `CC#C[C@]1(O)CC[C@H]2[C@@H]3CCC4=CC(=O)CC[C@]4(C)[C@H]3[C@@H](c3ccc(-n4cccc4)cc3)C[C@@]21C` [Compound 31, (8S,9R,10R,11S,13S,14S,17S)-11-(4-(1H-Pyrrol-1-yl)phenyl)-17-hydroxy-10,13-dimethyl-17-(prop-1-yn-1-yl)-1,2,6,7,8,9,10,11,12,13,14,15,16,17-tetradecahydro-3H-cyclopenta[a]phenanthren-3-one] showed a pIC50 of at least 7.00.

The next assay relates to AR. The assay is described as follows: AR agonism assay in LNAR reporter cell line. It is filed as cell-based. As to conditions: LNAR cells (overexpressed AR, 4XARE-Luc), 10% CSS, 18-24 hrs; Mifepristone maximum response set to 1. The procedure: Example B: In Vitro AR Agonism Assay
The AR agonism assay was done in the LNAR reporter cell line which has overexpressed AR and 4XARE-Luc genes. This cell line is sensitive to even minor partial AR agonism activity in hormone-deprived media (CSS). The assays were done in RPMI (without phenol red)+10% CSS using 6000 LNAR cells/well in 384-well plates and compounds were incubated with cells in […] incubator for 18-24 hrs. OneGlo reagent (25 uL/well) was added and plates were read with luminometer within 3 minutes.
To gauge the AR partial agonism activity, Mifepristone is included as a standard in the assay. AR agonism assay results are quantified by determining the ratio of the maximum response of individual compounds to the maximum response of Mifepristone (arbitrarily set to 1). Values of Table 4 are reported as Relative Maximum Response to Mifepristone. This general trend of AR agonism was shown for the class of compounds described herein.
`CC(C)(C)C#C[C@]1(O)CC[C@H]2[C@@H]3CCC4=CC(=O)CC[C@@H]4[C@H]3[C@@H](c3ccc(N4CCCC4)cc3)C[C@@]21C` [Compound 1, (8R,9S,10R,11S,13S,14S,17S)-17-(3,3-Dimethylbut-1-yn-1-yl)-17-hydroxy-13-methyl-11-(4-(pyrrolidin-1-yl)phenyl)-1,2,6,7,8,9,10,11,12,13,14,15,16,17-tetradecahydro-3H-cyclopenta[a]phenanthren-3-one]: the “Relative Maximum Response to Mifepristone” value (“Relative Maximum Response” below) was “A (A: ≤ 0.4)”.

As for `CC(C)(C)C#C[C@]1(O)CC[C@H]2[C@@H]3CCC4=CC(=O)CC[C@@H]4[C@H]3[C@@H](c3ccc(N4CCS(=O)(=O)CC4)cc3)C[C@@]21C` [Compound 22], the “Relative Maximum Response” value is “A (A: ≤ 0.4)”.

Regarding `CC#C[C@]1(O)CC[C@H]2[C@@H]3CCC4=CC(=O)CC[C@]4(C)[C@H]3[C@@H](c3ccc(N(C)C(C)C)cc3)C[C@@]21C` [Compound 19], the “Relative Maximum Response” value is given as “A (A: ≤ 0.4)”.

Still in this assay, the particulars now being: in concentrations as low as 10 nM.
`CC#C[C@]1(O)CC[C@H]2[C@@H]3CCC4=CC(=O)CCC4=C3[C@@H](c3ccc(N(C)C)cc3)C[C@@]21C` [Mifepristone, reference compound]: the “partial AR agonism” value was “strong partial AR agonism”.
